Test results as given in patent publication US20090215893A1, “Parakeratosis inhibitor, pore-shrinking agent,or rough skin preventing/ameliorating agent, and external composition for skin” (Shiseido Company Ltd, priority 2005, published 2009).

Tests used:
[1] = system: back of a hairless mouse (HR-1), 10 mass % oleic acid applied; assay: Parakeratosis-inhibiting effect tests: oleic acid applied to hairless mouse back, macroscopic rough skin evaluation and parakeratosis value; assay type: in vivo; conditions: for Macroscopic evaluation (average of four animals): 100 μL after oleic acid, three days, rough skin score 0.0 (no redness) to 2.0 (control); for Parakeratosis value (average of four animals): tape-stripped stratum corneum, hematoxylin, range 1.0 to 3.0, higher = parakeratosis advanced, control 2.0; for parakeratosis value / parakeratosis-inhibiting effect / rough skin preventing effect, based on stratum corneum peeling and redness: summary of Table 1, concentrations as in Table 1
Method: Aqueous solutions (containing 30 mass % of ethanol) of primarily 3 mass % of an α-amino acid derivative or salt thereof were prepared as the evaluation sample. The pH was regulated by hydrochloric acid or sodium hydroxide so as to be 7.0 to 7.5. When sample solubility was low, the solution was prepared accordingly.
100 μL of 10 mass % oleic acid solution (solvent: ethanol) were applied to the back of a hairless mouse (HR-1; Hoshino Laboratory Animals). Then the sample solution (α-amino acid derivative, and the like) was applied 100 μL at a time. This procedure was continued for three days. […] The status of the skin was evaluated in 0.25-point intervals, with skin where the control (control aqueous solution) had been applied being 2.0 and skin where there was no redness being 0.0. At the same time, the stratum corneum at the back of the hairless mouse was peeled off with tape, the nuclei were stained by hematoxylin, and the degree of parakeratosis was observed and evaluated by a parakeratosis value within a range of 1.0 to 3.0 (in 0.25 increments).

[2] = system: pores of the cheeks of healthy human males; assay: Human pore-shrinking effect (replica assessment of cheek pores); assay type: in vivo; conditions: for Replica assessment (average of n = 5): twice a day for one month, pore size rating 1-13, after application minus before application, control 0.3; for pore-shrinking effect: summary of Table 2, concentrations as in Table 2
Method: An experiment was conducted whereby a sample was applied twice a day for one month to the cheeks of healthy human males in groups of 5 men each. Aqueous solutions (containing 15 mass % of ethanol) of 3 mass % of the α-amino acid derivative or a salt thereof were prepared as the evaluation sample. The pH was regulated by hydrochloric acid or sodium hydroxide so as to be 7.0 to 7.5. When sample solubility was low, the solution was prepared accordingly. The control was an aqueous 15% ethanol solution. The sample aqueous solution and control aqueous solution were applied to one half of the face at a time.
A replica was collected before and after continuous application, and changes in the shape of the pores at the same site were observed using a three-dimensional laser scanning microscope. The size of the pores was macroscopically evaluated in 13 steps of 1 through 13 (with the pores becoming larger as the numbers became larger), the difference in the ratings before and after application (after application-before application) was calculated, and the efficacy of each sample was studied using this difference as the replica assessment.

[3] = system: cheek of a panel of 20 women; assay: Sensory irritation tests; assay type: in vivo, human; conditions: for Evaluation (sensory irritation, class of average rating): 1 mL on cheek, evaluated for ten minutes, 20 women; for sensory irritation: summary of Table 4, β-alanine at 3%
Method: 1 mL of a control aqueous solution and the sample aqueous solution prepared in Example 1 were applied using a cotton swab to the left or right cheek, respectively, of a panel of 20 women, the irritating sensation was evaluated every 30 seconds for ten minutes beginning immediately after application, and a final evaluation was reported. The evaluation of the irritating sensation was based on the following four steps of rating criteria, the average rating was calculated, and the average was classified by the following criteria.
3: Discontinued because of extremely strong irritation, such as stinging sensation, burning sensation, tickling sensation, itching, and the like.
2: Intolerable strong irritation, such as stinging sensation, burning sensation, tickling sensation, itching, and the like.
1: Tolerable with only slight stinging sensation, burning sensation, tickling sensation, itching, and the like.
0: Not particularly irritating.
A: average rating of less than 0.2
B: average rating of 0.2 to less than 1.0
C: average rating of 1.0 to less than 2.0
D: average rating of 2.0 or greater

[4] = system: back of hairless mice (HR-1), 10 mass % oleic acid applied; assay: Inhibiting effect against rough skin induced by oleic acid application (transepidermal water loss); assay type: in vivo; design: ΔTEWL value: unit not given here; conditions: for ΔTEWL value: three days, average of four animals, rough skin worse as value increases, control 12.0; for ΔTEWL value compared with the control aqueous solution / rough skin preventing/ameliorating effect: summary of Table 3, concentrations as in Table 3
Method: In order to investigate the inhibiting effect of α-amino acid derivatives and salts thereof against rough skin induced by oleic acid application, the transepidermal water loss (TEWL value) before and after application was measured, the difference was compared with the control (control aqueous solution), and the effect was determined. Sample preparation and the application method were in accordance with Example 1. The TEWL was determined using the TM210 TEWA Meter (Courage+Khazaka Electronic GmBH).
100 μL of 10 mass % oleic acid (solvent: ethanol) was applied to the back of hairless mice (HR-1, four mice per group). Then a sample solution (α-amino acid derivatives, and the like) was applied 100 μL at a time. This procedure was continued for three days. The following day, the TEWL value of the back was determined and the values of the four animals were averaged. Rough skin became worse as the ΔTEWL value increased.

SMILES | Macroscopic evaluation (average of four animals) ([1]; sample 3 mass %) | Parakeratosis value (average of four animals) ([1]; sample 3 mass %) | parakeratosis value / parakeratosis-inhibiting effect [1] | rough skin preventing effect, based on stratum corneum peeling and redness [1] | Replica assessment (average of n = 5) ([2]; sample 3 mass %) | pore-shrinking effect [2] | Evaluation (sensory irritation, class of average rating) ([3]; sample 3 mass %) | sensory irritation [3] | ΔTEWL value ([4]; sample 3 mass %) | ΔTEWL value compared with the control aqueous solution / rough skin preventing/ameliorating effect [4] | Macroscopic evaluation (average of four animals) ([1]; sample 1.5 mass %) | Parakeratosis value (average of four animals) ([1]; sample 1.5 mass %) | Replica assessment (average of n = 5) ([2]; sample 1.5 mass %) | Evaluation (sensory irritation, class of average rating) ([3]; sample 1.5 mass %) | ΔTEWL value ([4]; sample 1.5 mass %)
CCN[C@H](C)C(=O)O [N-ethyl-D-alanine] | 1.6 | 1.7 | reduced | seen | −0.5 | seen | A (average rating of less than 0.2) | no problems | 8.3 | significantly lower |  |  |  |  | 
CC(NC(=O)OCc1ccccc1)C(=O)O (racemic) [N-carbobenzoyloxy-DL-alanine] | 1.3 | 1.2 | reduced | seen | −1.0 | seen | A (average rating of less than 0.2) | no problems | 6.6 | significantly lower |  |  |  |  | 
CN[C@@H](C)C(=O)O [N-methyl-L-alanine] | 1.4 | 1.4 | reduced | seen | −0.8 | seen | A (average rating of less than 0.2) | no problems | 8.3 | significantly lower |  |  |  |  | 
CCN[C@@H](CO)C(=O)O [N-ethyl-L-serine] | 1.4 | 1.4 | reduced | seen | −1.2 | seen | A (average rating of less than 0.2) | no problems | 7.7 | significantly lower |  |  |  |  | 
C[C@@H](NC(=O)OCc1ccccc1)C(=O)O [N-carbobenzoyloxy-D-alanine] | 1.2 | 1.1 | reduced | seen | −0.8 | seen | A (average rating of less than 0.2) | no problems | 7.1 | significantly lower |  |  |  |  | 
O=C(O)CNC1CCCCC1 [N-cyclohexyl-glycine] | 1.2 | 1.1 | reduced | seen | −1.5 | seen | A (average rating of less than 0.2) | no problems | 6.4 | significantly lower |  |  |  |  | 
O=C(O)C(CO)NC1CCCCC1 (racemic) [N-cyclohexyl-DL-serine] | 1.2 | 1.2 | reduced | seen | −1.4 | seen | A (average rating of less than 0.2) | no problems | 6.7 | significantly lower |  |  |  |  | 
CC(NS(=O)(=O)c1ccccc1)C(=O)O (racemic) [N-benzenesulfonyl-DL-alanine] |  |  | reduced | seen |  | seen |  | no problems |  | significantly lower | 1.4 | 1.5 | −0.8 | A (average rating of less than 0.2) | 7.0
O=C(O)C(CO)NS(=O)(=O)c1ccccc1 (racemic) [N-benzenesulfonyl-DL-serine] | 1.2 | 1.2 | reduced | seen | −1.3 | seen | A (average rating of less than 0.2) | no problems | 6.9 | significantly lower |  |  |  |  | 
CNC(CO)C(=O)O (racemic) [N-methyl-DL-serine] | 1.2 | 1.2 | reduced | seen | −0.7 | seen | A (average rating of less than 0.2) | no problems | 8.0 | significantly lower |  |  |  |  | 
C[C@H](NC1CCCCC1)C(=O)O [N-cyclohexyl-L-alanine] | 1.4 | 1.3 | reduced | seen | −1.2 | seen | A (average rating of less than 0.2) | no problems | 7.1 | significantly lower |  |  |  |  | 
